{
  "source": "paper PMC12388496",
  "about": "“Discovery of (E)-1,3-Diphenyl-2-Propen-1-One Derivatives as Potent and Orally Active NLRP3 Inflammasome Inhibitors for Colitis” (Molecules, 2025)",
  "key": {"[1]": {"test_system": "IL-1β secretion in THP-1 cells (NLRP3 inflammasome)", "assay": "Inhibition of IL-1β secretion in THP-1 cells", "assay_type": "cell-based", "details": "Homo sapiens, three independent experiments", "experimental": "Through SAR analysis, we identified compound F14 as the target compound for further investigation. To further validate its activity, the half-inhibitory concentration (IC50) of compound F14 for IL-1β release was determined in the BMDM model. […] To more comprehensively assess the potential of compound F14, we further evaluated its inhibition of IL-1β in THP-1 cells.\nFigure 3 F14 inhibits the secretion of IL-1β. (A) Detection of F14 inhibition of IL-1 β secretion in BMDM cells; (B) Detection of F14 inhibition of IL-1 β secretion in THP-1 cells. IC50 calculation and dose-response curve fitting were performed using GraphPad Prism (8.0) software. All data were obtained from three independent experiments."}, "ASC": {"test_system": "ASC", "assay": "ASC spot immunofluorescence experiment in BMDM cells", "assay_type": "cell-based, mouse", "details": "LPS and Nigericin, concentration-dependent", "source_text": "The formation of ASC oligomers is a key hallmark of inflammasome activation. ASC forms interactions with other ASC molecules through its pyrin domain (PYD), which leads to the aggregation of these molecules, resulting in the formation of a speck-like structure (ASC specks). This process involves not only the aggregation of proteins but also the assembly of a highly ordered structure in the cytoplasm. Inhibition of ASC oligomerization can effectively block NLRP3 inflammasome activation. […] Therefore, we hypothesize that F14 may inhibit caspase-1 activation by interfering with ASC oligomerization or ASC speck formation. To validate this hypothesis, we conducted immunofluorescence experiments in BMDM cells under inflammatory conditions.\nAdd the BMDM cells into a 24-well plate with a cell density of 3 × 10^5 cells per well. Add LPS (200 ng/mL) to all wells except the blank wells to stimulate the cells for 3 h, then add the F14 to the experimental group and incubate for 1 h, followed by Nigericin stimulation for 30 min. Add 500 μL of FAA fixation solution to each well, incubate with 1% TritonX-100 solution for 15 min, then block with 5% BSA solution. Add an appropriate amount of primary antibody and incubate overnight, wash, then add the secondary antibody for incubation. […]"}, "[2]": {"test_system": "DSS-induced acute colitis", "assay": "DSS-induced acute colitis in mice", "assay_type": "in vivo, mouse", "details": "10 and 20 mg/kg daily, gavage", "experimental": "To further validate the in vivo biological activity of compound F14, we used the DSS-induced mouse colitis model to assess its anti-inflammatory effects. The experimental design was as follows: mice were divided into the normal group, model group (DSS), positive control group (DSS + sulfasalazine), low-dose group (DSS + 10 mg/kg), and high-dose group (DSS + 20 mg/kg). Mice in the normal group were given regular water with no treatment; the positive control group received sulfasalazine as the positive drug at a daily dose of 200 mg/kg; the low-dose and high-dose groups were administered 10 mg/kg and 20 mg/kg of F14, respectively, each day. During the experiment, acute colitis in mice was induced by drinking water containing 3% DSS […]. The mice’s body weight changes, fecal blood presence, and disease activity index (DAI) were recorded daily. […] Goblet cells are a type of colon epithelial cell, and their primary function is to secrete mucus, which helps maintain the stability of the intestinal environment. During the pathological process of colitis, the number of goblet cells decreased, and their mucus-secreting function was impaired. In histological examinations, the number and secretion function of goblet cells are important indicators of colitis.\nMale C57BL/6 mice, 18–20 g, were purchased from Charles River (China). All experiments and animal care procedures were approved by the Animal Resource Center of Anhui Medical University by the National Institutes of Health Guide for the Care and Use of Laboratory Animals (20230875). This study used DSS induction to establish an acute colitis model in mice. Mice in the experimental group were given free access to a 3% DSS solution for 7 days to induce an intestinal inflammation phenotype. The positive control group (sulfasalazine, 200 mg/kg) and the treatment group were gavage administration daily, using a 0.5% carboxymethyl cellulose sodium (CMC-Na) solution as the drug vehicle. The normal control and model groups received an equal volume of blank CMC-Na solution. Daily monitoring of weight changes and clinical symptoms was performed during the experimental period, including fecal characteristics (formed/loose/watery stools) and the degree of rectal bleeding (occult blood/gross blood in feces). On day 10, at the end of the experiment, the colonic sections of the mice were carefully excised. The excised colon was examined, and the length of the colon was measured. Some colon tissues were fixed in 4% formaldehyde and used for HE staining and immunohistochemical analysis for subsequent evaluations."}, "AIM2 inflammasome": {"test_system": "AIM2 inflammasome", "assay": "AIM2 inflammasome activation induced by poly (dA:dT) in BMDMs", "assay_type": "cell-based, mouse", "details": "F14 10 μM, LPS-primed BMDMs", "source_text": "(§1) The NLRP3 inflammasome can be activated by various stimuli, such as microbial toxins and urate crystals. This process plays a central role in the pathogenesis of many inflammatory diseases. To assess whether F14 exerts a broad-spectrum inhibitory effect on NLRP3 inflammasome activation, we used three different activators—ATP, MSU, and Nigericin to stimulate BMDMs. […] Among the inflammasome family, NLRC4 and AIM2 are also protein complexes involved in the innate immune response, playing key roles in inflammatory regulation during infection and tissue damage. Poly (dA:dT) was used to induce AIM2 activation, while S.typhi was employed to stimulate NLRC4 activation. […].\n(§2) The LPS concentration was 200 ng/mL to pretreat BMDM cells for 3 h, then F14 (10 μM) was added to treat the cells for 30 min, and then each inducer—Nigericin (10 μM, 0.5 h), ATP (2.5 mM, 0.5 h), MSU (150 μg/mL, 4 h), S.typhi (4 h), and poly-(dA:dT) (0.5 μg/mL, 4 h)—were added for stimulation. (A) F14 has a broad-spectrum inhibitory effect on NLRP3 inflammasome activation. (B) F14 has a specific inhibitory effect on NLRP3 inflammasome activation. Data are presented as the mean ± SEM (n = 3). *** p < 0.001 vs. the model group. NS, not significant."}, "NLRP3 inflammasome [3]": {"test_system": "NLRP3 inflammasome", "assay": "Western blot of NLRP3 inflammasome proteins in BMDMs", "assay_type": "cell-based, mouse", "details": "BMDM, LPS and Nigericin", "experimental": "To further investigate the potential molecular mechanisms of compound F14, an in vitro inflammation model was constructed using BMDM cells.\nInoculate BMDMs cells into a 6-well plate with 4-6 × 10^6 cells per well and culture overnight. Pre-treat with LPS (200 ng/mL) for 3 h, then treat with different concentrations of compound F14 for 30 min, and add Nigericin (10 µM) to activate BMDMs for 30 min. Add RIPA (Beyotime Biotechnology, Shanghai, China) for lysis. Select SDS-PAGE with different concentrations for electrophoresis, and then transfer to PVDF membrane (Millipore Immobilon-P, Burlington, MA, USA). Incubate the antibody imprint overnight at 4°C, and then incubate with HRP conjugated secondary antibody for 1 h."}, "NLRP3 inflammasome [4]": {"test_system": "NLRP3 inflammasome", "assay": "NLRP3 inflammasome activation by ATP, MSU and Nigericin in BMDMs (ELISA of IL-1β)", "assay_type": "cell-based, mouse", "details": "F14 10 μM; LPS-primed BMDMs stimulated with ATP, MSU or Nigericin", "source_text": "as §1, §2"}},
  "data": [
    {"molecule": "Cc1ccc(C(=O)/C=C/c2cccc(O)c2)c(C)c1", "note": "[Compound F14, (E)-1-(2,4-dimethylphenyl)-3-(3-hydroxyphenyl)propyl-2-en-1-one]", "values": [
      {"measurement": "IC50", "setting": "[1]", "result": 880, "unit": "nM"},
      {"measurement": "ASC speckles", "setting": "ASC", "result": "significant reduction"},
      {"measurement": "colonic adhesion", "setting": "[2]; DSS mice", "result": "effectively alleviated"},
      {"measurement": "goblet cells in colon tissue (histology)", "setting": "[2]; DSS mice", "result": "inhibits the reduction"},
      {"measurement": "disease activity index (DAI)", "setting": "[2]; vs model group (DSS)", "result": "inhibits the increase"},
      {"measurement": "weight loss in mice", "setting": "[2]; vs model group (DSS)", "result": "significantly alleviates"},
      {"measurement": "activation of AIM2 inflammasome", "setting": "AIM2 inflammasome", "result": "no effect"},
      {"measurement": "protein expression levels of pro-IL-1β, pro-caspase-1, ASC, NEK7 and NLRP3", "setting": "NLRP3 inflammasome [3]", "result": "no significant effect"},
      {"measurement": "protein levels of IL-1β and caspase-1 in the cell supernatant", "setting": "NLRP3 inflammasome [3]", "result": "concentration-dependent inhibitory effect"},
      {"measurement": "protein expression levels of mature IL-1β (ELISA)", "setting": "NLRP3 inflammasome [4]", "result": "significantly reduced"}
    ]}
  ]
}
